Source: patent publication US6248694A, “Plant growth regulator compositions” (BASF Aktiengesellschaft, priority 1999, dated 2001)

Assays:
[1] = Hygroscopicity (relative water uptake at 50 and 60% relative humidity in air); format: physicochemical
Experimental: 4) Hygroscopicity of compound 1.1 in comparison to mepiquat chloride:
Both compounds were dried to a constant dry weight in vacuum at 40° C. 48 hours. Afterwards approx. 1 g samples (two series of 3 samples each and average values) were stored under 50 and 60% relative humidity in air for 2 and/or 4 weeks. The following results in relative water uptake (wt. % w/w) were found: […]

[2] = Corrosion trial, test series 1 (DIN No. 52168, modified steel plates, 14 days)
Experimental: (§1) Comparison of (A) mepiquat chloride, with (B) a mixture of mepiquat chloride with disodium octaborate tetrahydrate (Solubor®), and (C) mepiquat pentaborate (compound 1.9) of example 13.
(§2) The tests of this example were conducted according to the method of DIN (Deutsche Industrie Norm) No. 52168, part 1 of November 1981, but using modified steel plates.
(§3) The corrosion tests were conducted on the three different formulations prepared as set forth below. Each formulation was tested with the different steel types set forth below.
(§4) The first formulation, referred to as "mepiquat chloride" in the tables below, was an 8.33% mepiquat chloride aqueous solution (by weight) prepared by diluting a 600 g/l mepiquat chloride preconcentrate. The second formulation, referred to as "mepiquat chloride plus borate salt" in the tables below, was prepared by adding 15 wt. % disodium octaborate tetrahydrate to the same 8.33% aqueous solution of mepiquat chloride as was used in the first formulation.
(§5) The third formulation, referred to as "mepiquat pentaborate"--in the tables below, was prepared from compound 1.9, example 13 by diluting with water to form a 12% mepiquat pentaborate (wt. %) aqueous solution.
(§6) All three abovementioned formulations contained equal amounts of the mepiquat cation.
(§7) One-half liter quantities of each formulation were placed in polyethylene plastic containers (10 cm×10 cm×12 cm (height)). Into each of the containers, two series of steel plate types--12×5 cm^2 (0.2 cm thickness) were inserted.
(§8) In modification of the mentioned DIN, the steel plates were prepared with an additional oxyacetylene torched area, approximately 5 to 7 mm large, horizontally in the middle of the steel plates.
(§9) The torched areas were placed below the solution's surface. (The aim of this modification of the test was to simulate a more serious corrosion and endangering situation.)
(§10) The position of the plates were such that approximately 1/3 of the plates were in air contact. After 14 days the steel plates were examined, washed and cleaned, dried and weighed according to the DIN method above.

[3] = Corrosion trial, test series 2 (DIN No. 52168, modified steel plates, 14 days)
Experimental: as §1, §2, §3, §4, §5, §6, §7, §8, §9, §10

[4] = Hygroscopic nature, observation in words; format: physicochemical; conditions: solid dried at 50° C. under reduced pressure
[5] = pH in water 1 wt. % concentration; format: physicochemical; conditions: 1 wt. % in water
Description: 5) pH in water 1 wt. % concentration 6.78

[6] = 50% relative humidity in air, 2 weeks
[7] = 60% relative humidity in air, 2 weeks
[8] = 4 weeks at 50% relative humidity in air
[9] = 4 weeks at 60% relative humidity in air

With C[N+]1(C)CCCCC1.[Cl-] [mepiquat chloride, N,N-dimethylpiperidinium chloride, reference compound] the Relative water uptake [1, 6] was 52 wt. % w/w, the Relative water uptake ([1]; 50% relative humidity in air, 4 weeks) was 58 wt. % w/w and the Relative water uptake [1, 7] was 71 wt. % w/w. For the same compound, the Relative water uptake ([1]; 60% relative humidity in air, 4 weeks) was 78 wt. % w/w, the “pH values, end” value ([2]; ST 37, end) was 7.96 and the “pH values, initial” value ([2]; ST 37, initial) was 7.67. For the same compound, the “appearance of the resulting formulations” value ([2]; ST 37, test series 1) was “yellow to orange solution, cloudy, sedimentations”, the “pH values, end” value ([3]; ST 13, end) was 8.34 and the “pH values, initial” value ([3]; ST 13, initial) was 7.67. For the same compound, the “appearance of the resulting formulations” value ([3]; ST 13, test series 2) was “yellow to orange solution, cloudy, sedimentations”.

With “[Dimethylpiperidinium]^+ [B6.4 Na0.3 O10.3 ]^-×4 H2 O [Compound 1.7]” the “Hygroscopicity: water uptake” value [1, 8] was 1.9 wt. % and the “Hygroscopicity: water uptake” value [1, 9] was 4.1 wt. %.

In the case of C[N+]1(C)CCCCC1 [N,N-dimethylpiperidiniumbicarbonate], the “Hygroscopic nature of isolated product” value [4] is reported as “extremely hygroscopic”.

With “[Dimethylpiperidinium]^+ [B8 (NH4)0.3 O12.7 ]^-×4 H2 O [Compound 1.5]” the “Hygroscopicity: water uptake” value [1, 8] was 0.4 wt. %, the “Hygroscopicity: water uptake” value [1, 9] was 0.6 wt. % and the “pH in water 1 wt. % concentration” value [5] was 6.8.

For C[N+]1(C)CCCCC1.O.O.O.O.O.O.OB(O)O.OB(O)O.OB(O)O.OB(O)O.OB(O)O.OB(O)O.OB(O)O.OB(O)O.OB(O)O.[Na+].[O-]B([O-])O [Compound 1.1, N,N-Dimethylpiperidinium sodium decaborate hexahydrate], the Relative water uptake [1, 6] was 4.1 wt. % w/w, the Relative water uptake [1, 7] was 7.8 wt. % w/w and the “pH in water 1 wt. % concentration” value [5] was 6.78.

With “[Dimethylpiperidinium]2^2+ [B18 Na2 O29 ]^2-×8 H2 O [Compound 1.2]” the “Hygroscopicity: water uptake” value [1, 8] was 5.2 wt. %, the “Hygroscopicity: water uptake” value [1, 9] was 7.0 wt. % and the “pH in water 1 wt. % concentration” value [5] was 7.4.

With “[Dimethylpiperidinium]2^2+ [B12 Na4 O21 ]^2-×20 H2 O [Compound 1.3]” the “Hygroscopicity: water uptake” value [1, 8] was 13.6 wt. % and the “Hygroscopicity: water uptake” value [1, 9] was 28.8 wt. %.

With “[Dimethylpiperidinium]^+ [B9 Na0.9 O14.5 ]^-×6H2 O [Compound 1.6]” the “Hygroscopicity: water uptake” value [1, 8] was 2.7 wt. %, the “Hygroscopicity: water uptake” value [1, 9] was 9.0 wt. % and the “pH in water 1 wt. % concentration” value [5] was 7.1.
